Experimental findings from patent publication US20240308960A1 (Sumitomo Pharma Co., Ltd., priority 2021, published 2024) are described below.

SMILES strings stand for the structures.

The assay deals with T1, Human orexin receptor type 2 (Homo sapiens, UniProt O43614).
T1 sequence (O43614 1-444): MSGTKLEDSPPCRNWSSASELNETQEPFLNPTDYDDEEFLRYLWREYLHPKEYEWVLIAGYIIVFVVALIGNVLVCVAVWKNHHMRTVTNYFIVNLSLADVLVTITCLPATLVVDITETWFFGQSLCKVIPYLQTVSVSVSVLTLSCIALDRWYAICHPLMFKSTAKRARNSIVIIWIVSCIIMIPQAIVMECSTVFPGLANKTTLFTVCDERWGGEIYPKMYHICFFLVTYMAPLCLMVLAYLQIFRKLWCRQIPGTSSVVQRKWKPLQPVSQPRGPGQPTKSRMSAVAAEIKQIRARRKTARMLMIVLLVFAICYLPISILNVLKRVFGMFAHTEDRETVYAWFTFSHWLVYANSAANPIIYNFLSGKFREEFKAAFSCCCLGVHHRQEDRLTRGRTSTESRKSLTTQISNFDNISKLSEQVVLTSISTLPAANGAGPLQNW
The experiment in a line: Test Example 1: agonist activity for orexin receptor type 2 (aequorin luminescence, intracellular calcium mobilization). The conditions noted are these: compound 10 μm; CHO cells transiently expressing human orexin receptor type 2 and apoaequorin; relative percentage of luminescence for the luminescence (100%) of Orexin A (100 μM). (In general: A change in cytosolic calcium serves as a functional read-out for many receptors and channels.)
In the case of `CC(C)N1CCN(c2cccc(Cl)c2NC(=O)N2CCC(C)(c3cc(C4CC4)on3)CC2)CC1` [Example 61, N-{2-chloro-6-[4-(propan-2-yl)piperazin-1-yl]phenyl}-4-(5-cyclopropyl-1,2-oxazol-3-yl)-4-methylpiperidine-1-carboxamide], the “Agonist Activity (%)” value is given as 156%. With `CC(C)c1ccc(-c2cccc(Cl)c2NC(=O)N2CCC(C)(c3cc(C4CC4)on3)CC2)cn1` [Example 69, N-{2-chloro-6-[6-(propan-2-yl)pyridin-3-yl]phenyl}-4-(5-cyclopropyl-1,2-oxazol-3-yl)-4-methylpiperidine-1-carboxamide], the “Agonist Activity (%)” value is 129%. Turning to `CC(C)N1CCN(c2cccc(Cl)c2NC(=O)N2CCC(C)(c3noc([C@@H]4C[C@@H]4C)n3)CC2)CC1` [Example 118, N-{2-chloro-6-[4-(propan-2-yl)piperazin-1-yl]phenyl}-4-methyl-4-{5-[(1R,2S)-2-methylcyclopropyl]-1,2,4-oxadiazol-3-yl}piperidine-1-carboxamide], the “Agonist Activity (%)” value is 149%.

With `COc1cccc(C2CCN(C(C)C)CC2)c1NC(=O)N1CCC(c2ccc(C)cc2)CC1` [Example 48, N-{2-methoxy-6-[1-(propan-2-yl)piperidin-4-yl]phenyl}-4-(4-methylphenyl)piperidine-1-carboxamide], the “Agonist Activity (%)” value came out at 146%. In the case of `CC(C)N1CCN(c2cccc(F)c2NC(=O)N2CCC(C)(C3CCCC3)CC2)CC1` [Example 91, 4-cyclopentyl-N-{2-fluoro-6-[4-(propan-2-yl)piperazin-1-yl]phenyl}-4-methylpiperidine-1-carboxamide], the “Agonist Activity (%)” value was 195%.

On to `CCN1CCN(c2ccccc2NC(=O)N2CCC(c3nc4ccccc4o3)CC2)CC1` [Example 2, 4-(1,3-benzoxazol-2-yl)-N-[2-(4-ethylpiperazin-1-yl)phenyl]piperidine-1-carboxamide], for which the “Agonist Activity (%)” value was 35%. For the compound `CCN1CCN(c2ccccc2NC(=O)N2CCC(c3cc(OC)cc(OC)c3)CC2)CC1` [Example 3, 4-(3,5-dimethoxyphenyl)-N-[2-(4-ethylpiperazin-1-yl)phenyl]piperidine-1-carboxamide], the “Agonist Activity (%)” value is listed as 27%. Regarding `CC(C)c1ncc(-c2cccc(F)c2NC(=O)N2CCC(C)(c3noc(C4CC4)n3)CC2)cn1` [Example 72, 4-(5-cyclopropyl-1,2,4-oxadiazol-3-yl)-N-{2-fluoro-6-[2-(propan-2-yl)pyrimidin-5-yl]phenyl}-4-methylpiperidine-1-carboxamide], the “Agonist Activity (%)” value is given as 144%. Consider `CC(C)N1CCN(c2ccccc2NC(=O)N2CCC(C#N)(c3ccccc3)CC2)CC1.Cl` [Example 6, 4-cyano-4-phenyl-N-{2-[4-(propan-2-yl)piperazin-1-yl]phenyl}piperidine-1-carboxamide], for which the “Agonist Activity (%)” value is listed as 151%. Regarding `CC(C)N1CC=C(c2cccc(F)c2NC(=O)N2CCC(C)(c3noc(C4CC4)n3)CC2)CC1` [Example 44, 4-(5-cyclopropyl-1,2,4-oxadiazol-3-yl)-N-{2-fluoro-6-[1-(propan-2-yl)-1,2,3,6-tetrahydropyridin-4-yl]phenyl}-4-methylpiperidine-1-carboxamide], the “Agonist Activity (%)” value is given as 143%. Regarding `Cc1ccc(C2CCN(C(=O)Nc3ccccc3[C@@H]3CN[C@@H](C(C)C)CO3)CC2)cc1` [Example 166, 4-(4-Methylphenyl)-N-{2-[(2R,5S)-5-(propan-2-yl)morpholin-2-yl]phenyl}piperidine-1-carboxamide], the “Agonist Activity (%)” value is 72%.

As to `Cc1nc(C2(C)CCN(C(=O)Nc3ccccc3N3CCN(C(C)C)CC3)CC2)no1` [Example 120, 4-methyl-4-(5-methyl-1,2,4-oxadiazol-3-yl)-N-{2-[4-(propan-2-yl)piperazin-1-yl]phenyl}piperidine-1-carboxamide], the “Agonist Activity (%)” value turned out to be 125%. In the case of `Cc1ccc(C2CCN(C(=O)Nc3c(F)cccc3N3C4CCC3CN(C(C)C)C4)CC2)cc1` [Example 161, N-{2-Fluoro-6-[3-(propan-2-yl)-3,8-diazabicyclo[3.2.1]octan-8-yl]phenyl}-4-(4-methylphenyl)piperidine-1-carboxamide], the “Agonist Activity (%)” value turned out to be 90%. For `Cc1ccc(C2CCN(C(=O)Nc3c(F)cccc3C3=CCN(C(CF)CF)CC3)CC2)cc1` [Example 136, N-{2-[1-(1,3-difluoropropan-2-yl)-1,2,3,6-tetrahydropyridin-4-yl]-6-fluorophenyl}-4-(4-methylphenyl)piperidine-1-carboxamide], the “Agonist Activity (%)” value came out at 105%. With `CC(C)N1CCN(c2cccc(F)c2NC(=O)N2CCC(C)(c3noc(C4CC4)n3)CC2)CC1` [Example 45, 4-(5-cyclopropyl-1,2,4-oxadiazol-3-yl)-N-{2-fluoro-6-[4-(propan-2-yl)piperazin-1-yl]phenyl}-4-methylpiperidine-1-carboxamide], the “Agonist Activity (%)” value is listed as 127%. On to `Cc1ccc(C2CCN(C(=O)Nc3c(F)cccc3C3=CCN(C(C)C(F)F)CC3)CC2)cc1` (centres unmarked) [Example 135, N-{2-[1-(1,1-difluoropropan-2-yl)-1,2,3,6-tetrahydropyridin-4-yl]-6-fluorophenyl}-4-(4-methylphenyl)piperidine-1-carboxamide], for which the “Agonist Activity (%)” value was determined as 103%. The value for `Cc1ccc(C2CCN(C(=O)Nc3c(Cl)cccc3C3CCN(C(C)C)CC3)CC2)cc1` [Example 133, N-{2-chloro-6-[1-(propan-2-yl)piperidin-4-yl]phenyl}-4-(4-methylphenyl)piperidine-1-carboxamide] was 156%; that for `CC(C)N1CCC(c2cccc(F)c2NC(=O)N2CCC(c3cc(C4CC4)on3)CC2)CC1` [Example 51, 4-(5-cyclopropyl-1,2-oxazol-3-yl)-N-{2-fluoro-6-[1-(propan-2-yl)piperidin-4-yl]phenyl}piperidine-1-carboxamide] was 151%.

Regarding `Cc1ccc(C2CCN(C(=O)Nc3ccccc3N3CCN(C4CCOC4)CC3)CC2)cc1` (centres unmarked) [Example 124, 4-(4-methylphenyl)-N-{2-[4-(oxolan-3-yl)piperazin-1-yl]phenyl}piperidine-1-carboxamide], the “Agonist Activity (%)” value was found to be 27%.

With `Cc1ccc(C2CCN(C(=O)Nc3c(Cl)cccc3C3=CCN(C(C)C)CC3)CC2)cc1` [Example 132, N-{2-chloro-6-[1-(propan-2-yl)-1,2,3,6-tetrahydropyridin-4-yl]phenyl}-4-(4-methylphenyl)piperidine-1-carboxamide], the “Agonist Activity (%)” value stood at 171%. As for `CC1(c2noc(C3CC3)n2)CCN(C(=O)Nc2c(Cl)cccc2N2CCN(C(C)(C)C)CC2)CC1` [Example 100, N-[2-(4-tert-butylpiperazin-1-yl)-6-chlorophenyl]-4-(5-cyclopropyl-1,2,4-oxadiazol-3-yl)-4-methylpiperidine-1-carboxamide], the “Agonist Activity (%)” value is listed as 160%. Take `CC(C)N1CCN(c2cccc(Cl)c2NC(=O)N2CCC(C)(c3noc(C4CC4(F)F)n3)CC2)CC1` (centres unmarked) [Example 114, N-{2-chloro-6-[4-(propan-2-yl)piperazin-1-yl]phenyl}-4-[5-(2,2-difluorocyclopropyl)-1,2,4-oxadiazol-3-yl]-4-methylpiperidine-1-carboxamide]: the “Agonist Activity (%)” value is given as 155%. `COC1(c2nc(C3(C)CCN(C(=O)Nc4c(Cl)cccc4N4CCN(C(C)C)CC4)CC3)no2)CC1` [Example 108, N-{2-chloro-6-[4-(propan-2-yl)piperazin-1-yl]phenyl}-4-[5-(1-methoxycyclopropyl)-1,2,4-oxadiazol-3-yl]-4-methylpiperidine-1-carboxamide]: the “Agonist Activity (%)” value turned out to be 157%. Then `CC1(C#N)CCN(C(=O)Nc2c(Cl)cccc2C2=CCN(C3CCC3)CC2)CC1` [Example 159, N-[2-chloro-6-(1-cyclobutyl-1,2,3,6-tetrahydropyridin-4-yl)phenyl]-4-cyano-4-methylpiperidine-1-carboxamide], with 150%; and `CC(C)c1ccc(-c2cccc(F)c2NC(=O)N2CCC(C)(c3noc(C4CC4)n3)CC2)cc1` [Example 65, 4-(5-cyclopropyl-1,2,4-oxadiazol-3-yl)-N-[3-fluoro-4′-(propan-2-yl) [1,1′-biphenyl]-2-yl]-4-methylpiperidine-1-carboxamide], with 93%.

Regarding `CC(C)N1CCN(c2cccc(Cl)c2NC(=O)N2CCC(F)(c3noc(C4CC4)n3)CC2)CC1` [Example 94, N-{2-chloro-6-[4-(propan-2-yl)piperazin-1-yl]phenyl}-4-(5-cyclopropyl-1,2,4-oxadiazol-3-yl)-4-fluoropiperidine-1-carboxamide], the “Agonist Activity (%)” value was found to be 179%.

Take `CCC1(c2noc(C3CC3)n2)CCN(C(=O)Nc2c(Cl)cccc2N2CCN(C(C)C)CC2)CC1` [Example 89, N-{2-chloro-6-[4-(propan-2-yl)piperazin-1-yl]phenyl}-4-(5-cyclopropyl-1,2,4-oxadiazol-3-yl)-4-ethylpiperidine-1-carboxamide]: the “Agonist Activity (%)” value came to 152%. With `Cc1ccc(C2CCN(C(=S)Nc3c(F)cccc3N3CCN(C(C)C)CC3)CC2)cc1` [Example 64, N-{2-fluoro-6-[4-(propan-2-yl)piperazin-1-yl]phenyl}-4-(4-methylphenyl)piperidine-1-carbothioamide], the “Agonist Activity (%)” value is listed as 140%. Turning to `Cc1cc(C2(C)CCN(C(=O)Nc3c(F)cccc3N3CCN(C(C)C)CC3)CC2)no1` [Example 85, N-{2-fluoro-6-[4-(propan-2-yl)piperazin-1-yl]phenyl}-4-methyl-4-(5-methyl-1,2-oxazol-3-yl)piperidine-1-carboxamide], the “Agonist Activity (%)” value is on record as 145%.
